{"source": "patent US10744175B2", "about": "“Herbal composition for the treatment of Herpes” (priority 2016, dated 2020)", "system": "Herpes simplex virus", "experiment": "Administration to human subjects with Herpes symptoms (case reports)", "type": "in vivo", "settings": "case 3: taken for years by man and woman positive for HSV 1 and 2", "procedure": "• 1. Frequent Genital herpes outbreaks—A person from Karnataka, India, suffers from severe blistering, pain and burning around the pubic region and genitals due to one or more strains of the Herpes virus. The composition of the invention as disclosed in Example 1 is administered. […] Tiny pimple-like outbreaks around lips—A person—starts experiencing tiny pimples on their lips which later appear like blisters. Blood tests show high titer from HSV 1 antibodies. […] Each tests positive for HSV 1 and 2. […] A person reports the presence of abnormal cells along with the presence of HPV. These cells then develop into “pre-cancerous” cells. This subject daily ingests the composition of Example 1 for 4 months. […] After administration of the composition of Example 1 for over 6 months, the results for HPV come back negative. • 6. A person reports warts on their hands for about 6 years which they remove with laser therapy. This burns the skin and leaves scars. […] A person reports an HPV infection for 5 years. Within the first 6 months of daily ingestion of the composition of Example 1, all tests for HPV are negative and no recurrence is shown. • 8. A person ingests the composition of Example 1 along with an alkaline diet. This subject suffers from larger warts (around 10 in number). […]"}
{"smiles": "Nc1nc2c(ncn2COCCO)c(=O)[nH]1", "note": "[acyclovir]", "values": [{"measurement": "outcome of previous antiviral treatment", "result": "little success"}]}
